71 compounds from ChEMBL document CHEMBL3507680, “University of Dundee, Gates Library screen for HepG2 cell viability” can be followed below.

The nature of this data set: Human HepG2 cell viability assay in 384 well format. The data set is classed as toxicity, cell-based. Set-up: dose 125 nL, time 70.5 hour; cytotoxicity at 70.5 h: concentration not given beside the values. The following applies: HepG2 cells, read-out: Inhibition.
For `Cn1ncc(C(=O)N2CCN(CCS(C)(=O)=O)CC2)c1Cl`, the cytotoxicity at 70.5 h was found to be 18.4%.
As for `O=C(c1ccc(-c2ccc(O)nc2)s1)N1CCCCCC1`, the figure is -10.4%; as for `Cc1nc(Nc2nnc(C)s2)cc(C2CCCN2C2CCCC2)n1` (stereo unspecified), -5.26%.
As for `Cc1cnc(N)c(C(=O)C2CCN(C(=O)C3CCC3)CC2)c1`, the figure is 11.3%; as for `O=C(c1ccncc1)N1CCCC(c2ncncc2-c2ccncc2)C1` (stereo unspecified), -4.43%; as for `Cc1cc(-c2cnc(N3CCC(O)CC3)nc2-c2cccnc2C)on1`, 8.43%.
Next, `Cc1cc(-c2cnc(N3CCCCCC3)nc2-c2cccnc2C)on1`: -12.8%.
In the case of `COc1cc(C2Nc3cc(Cl)ccc3C3=NCCN32)ccc1O` (stereo unspecified), the cytotoxicity at 70.5 h was -8.38%.
Next, `NC(=O)C1CCN(c2ncc(-c3cnccn3)c([C@H]3CCCO3)n2)CC1`: -11.5%; `CNc1cncc(C2CCCN2c2cc(C)ncn2)n1` (stereo unspecified): 17.1%; `CC(=O)N1CCCC(c2ccc(N3CCN(C)CC3)cn2)C1` (stereo unspecified): -3.54%.
Next, `COc1cccc(CN2CCC(c3nn(CCN)c4nccnc34)C2)c1` (stereo unspecified): 17%.
As for `CN1CCCCC1c1ncc2c(n1)CCN(Cc1ccc(Cl)c(F)c1)C2` (stereo unspecified), the figure is -3.53%.
As to `O=C(C1CCCO1)N1CCC(O)(Cn2ccc3ccncc32)CC1` (stereo unspecified), the cytotoxicity at 70.5 h amounted to 15.9%.
Next, `Cc1cc2c(=O)n3c(nc2s1)CCN(C(=O)c1ccnn1C(C)C)CC3`: -7.45%.
As for `Cc1cc2c(=O)n3c(nc2s1)CCN(C(=O)c1c(C)noc1C)CC3`, the figure is -3.89%.
Next, `C[C@@H]1C[C@H](C(F)(F)F)n2nc(C3CCN(S(C)(=O)=O)CC3)cc2N1`: -2.94%.
As to `C[C@@H]1C[C@H](C(F)(F)F)n2nc(C3CCN(S(=O)(=O)N(C)C)CC3)cc2N1`, the cytotoxicity at 70.5 h was -5.83%.
As for `Cc1ccc(S(=O)(=O)N2C[C@H]3C[C@H](NC(=O)c4cnn(C)c4)[C@H]3C2)cc1`, the figure is 33.7%.
With `O=S1(=O)NC(C2CCN(Cc3ccncc3)CC2)Nc2ccccc21` (stereo unspecified), the cytotoxicity at 70.5 h came out at 23.9%.
Next, `Cc1cc(-c2cnc(N3CCNC(=O)C3)nc2-c2ccoc2C)on1`: -6.66%.
Next, `CC(=O)N1CCCC(c2ccc(Cc3ccccc3)cn2)C1` (stereo unspecified): 20%; `O=C(c1ncccn1)N1C[C@@H]2CC[C@H](Oc3cccc(F)c3)[C@@H]2C1`: -6.95%.
Next, `O=C(c1cccnn1)N1C[C@@H]2CC[C@H](Oc3cccc(F)c3)[C@@H]2C1`: 14.9%; `NCc1cnn(-c2ccccc2C(=O)NCCc2ccncc2)c1`: -7.18%.
As to `Cc1noc(C)c1-c1cncc(C2CCCN2Cc2c[nH]cn2)n1` (stereo unspecified), the cytotoxicity at 70.5 h was -6.81%.
Next, `Cc1noc(C)c1-c1cncc(C2CCCN2Cc2ncc[nH]2)n1` (stereo unspecified): 16.2%.
`NCCn1nc(C2CCN(C(=O)Cc3ccccc3)C2)c2nccnc21` (stereo unspecified): the cytotoxicity at 70.5 h is -5.36%.
As for `CCCn1ncc(CN2C[C@@H]3CCCN3C[C@H]2CCSC)c1C`, the figure is -1.67%; as for `COCC(=O)N1CCC(c2cncc(-c3cccc(F)c3)n2)CC1`, -7.23%; as for `CC(=O)N1CCCN(c2cc(C3CN(C)CCO3)nc(C)n2)CC1` (stereo unspecified), 12%.
As for `OCCN1CCCC(c2nccnc2Oc2ccc(F)cc2)C1` (stereo unspecified), the cytotoxicity at 70.5 h is -2.84%.
Next, `Cc1nc(Nc2cnccn2)cc(C2CCCN2C2CCOCC2)n1` (stereo unspecified): -5.63%.
Next, `Cc1c(C(=O)N2CC(Cc3nccc4ccn(C)c34)C2)cnn1C`: -6.29%; `Cc1nc(C2CCCN2C(=O)CC2CCCC2)ncc1C(N)=O` (stereo unspecified): -4.71%; `Cc1c[nH]nc1C1CCN(S(=O)(=O)N(C)C)C1` (stereo unspecified): -8.85%.
As for `CCCn1ccnc1CN1CCN(C2CCOCC2)CC(C(N)=O)C1` (stereo unspecified), the figure is -10.4%; as for `CNc1cc(C)nc(C2CN(Cc3ccc(Cl)cn3)CCO2)c1` (stereo unspecified), -5.55%; as for `COC(=O)c1cc(NC(=O)CCc2cscn2)ccc1C`, -5.71%.
For the compound `Cc1ccc(NC(=O)N2CCOC(C)(c3cnn(C)c3)C2)c(C)c1` (stereo unspecified), the cytotoxicity at 70.5 h is -3.64%.
As for `Cn1cc(C2(C)CN(C(=O)Nc3ccccc3F)CCO2)cn1` (stereo unspecified), the figure is -5.13%.
Next, `Cc1nc(CNC2(C(=O)OC(C)(C)C)CCCC2)oc1C`: -8.39%.
Next, `O=C(c1cnc(-c2ccccc2)s1)N1CCOC2(CCCC2)C1`: -3.97%; `N#Cc1ccc(F)c(CN2CCCC2Cn2cncn2)c1` (stereo unspecified): -5.36%.
Consider `CC(=O)N1CCN(CCCSCc2ccccc2)CC1`, for which the cytotoxicity at 70.5 h is 6.76%.
Next, `CS(=O)(=O)N1CCCN(CCCSCc2ccccc2)CC1`: -8.27%.
Consider `CN(Cc1cc(F)cc2cccnc12)CC1CCN(CCO)CC1`, for which the cytotoxicity at 70.5 h was -8.39%.
Turning to `CC(C)OCCCNC(=O)CN1CCN(c2nccs2)C(C)C1` (stereo unspecified), the cytotoxicity at 70.5 h came to 35.5%.
Next, `CCc1nc2n(n1)CC(NCC1=Cc3ccc(OC)cc3OC1)CC2` (stereo unspecified): 2.24%.
Next, `Cc1nnc(CN(C)CC(=O)NCCc2ccc(F)cc2)n1C`: -5.46%; `CCN(CC)CCCNC(=O)Nc1c(C)cccc1C(C)C`: -4.07%; `CN(Cc1noc(C2CC2)n1)C1CCN(CCn2cccn2)C1` (stereo unspecified): -5.95%.
Next, `CCC1(CC)CC(=O)N(CC(O)c2cccc(Br)c2)C1=O` (stereo unspecified): 28.9%; `Cc1cc(CN(C)C(=O)Nc2ccccc2C)no1`: -4.53%.
With `OC(CNCc1nnc2ccccn12)c1ccc2c(c1)OCCCO2` (stereo unspecified), the cytotoxicity at 70.5 h was -8.23%.
Next, `CC(CN1CCOC1=O)NC(=O)c1cccc(Cl)c1Cl` (stereo unspecified): -4.07%.
As for `CCC1(CC)CC(=O)N(CC(O)c2ccc(F)cc2)C1=O` (stereo unspecified), the cytotoxicity at 70.5 h is -9.84%.
With `Cc1ccc(C(CNC(=O)c2cc(=O)c3ccccc3[nH]2)N(C)C)cc1` (stereo unspecified), the cytotoxicity at 70.5 h is -4.48%.
Next, `CC(CN1CCOC1=O)NC(=O)c1cccc(C#N)c1` (stereo unspecified): -3.83%.
For the compound `COCC(C)NC(=O)N1CCN(S(C)(=O)=O)CC1` (stereo unspecified), the cytotoxicity at 70.5 h is -2.46%.
As for `O=c1c2sccc2nc2n1CCN(Cc1ccc(F)c(F)c1)CC2`, the figure is -9.83%; as for `C[C@H](N)Cn1nc(-c2cccs2)oc1=O`, -1.53%; as for `O=C(CN1CCCC1=O)N1CCC(O)(Cn2ccc3ccncc32)CC1`, -5.71%.
As for `COc1cccc(CN2CCc3nc4ccsc4c(=O)n3CC2)c1`, the figure is 12.2%.
As for `CCOc1ccccc1CN1CCc2nc3ccsc3c(=O)n2CC1`, the figure is -7.1%.
Take `Cc1nc(C2(O)CCCNCC2)sc1CCOc1ccc(F)c(F)c1` (stereo unspecified): the cytotoxicity at 70.5 h is -4.26%.
Next, `Nc1cnn(CC(=O)N2CCCCC2)c1`: 3.95%; `CCOc1cc(CN[C@@H]2COC[C@H]2Cc2cc(C)no2)ccc1O`: -2.12%.
Next, `OC1CCN(Cc2ccnc(-c3cccnc3)n2)CC1`: -7.13%; `OC1CCCN(Cc2ccnc(-c3cccnc3)n2)C1` (stereo unspecified): -4.64%.
On to `COC(=O)c1ccc(CN[C@@H]2COC[C@H]2Cc2cc(C)no2)cc1`, for which the cytotoxicity at 70.5 h was -4.83%.
